We go through two compounds from patent publication US11426404B2, “Dosing of KRAS inhibitor for treatment of cancers” (AMGEN INC., priority 2019, dated 2022).

Several values for one entry are separate records, joined by “and”; a condition that tells them apart may be missing. Equal entries are not always repeated.

Data set [1] deals with KRAS p.G12C tumors. To be noted: preclinical KRAS p.G12C models; cited from earlier work.
A short description of a further data set: clinical. As to conditions: human, in vivo, po, 960 mg.
In another data set the test system is patients with CRC. Briefly: Phase 1 study, updated results (cutoff Jan. 8, 2020): adverse events in patients with CRC, N = 42.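 Also: values are patient incidence of adverse events, i.e. counts of patients experiencing each event.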 The data set is classed as in vivo.
The subject of data set [2] is KRAS p.G12C tumors. Description: Preclinical KRAS p.G12C tumor models. The data set is classed as in vivo.
The test system of data set [3] is KRAS p.G12C tumors. Description: Treatment of immune-competent mice. The data set is classed as in vivo.
Data set [4] has as its system patients with advanced solid tumors other than NSCLC and CRC.
From the text: (§1) A subject undergoing a therapy is monitored for adverse events (AE) during the course of the therapy. A treatment related AE is an AE that is related to the treatment drug. A treatment emergent AE is one that a subject develops undergoing the treatment that was not present prior to start of therapy. In some cases, the treatment emergent AE is not or suspected not to be related to the treatment itself AEs are characterized as one of five grades—grade 1 is a mild AE; grade 2 is a moderate AE; grade 3 is a severe AE; grade 4 is a life-threatening or disabling AE; and grade 5 is death related to AE.
(§2) The grading of AEs is based on the guidelines provided in the CTCAE version 5.0. AEs for DLT assessment: Hematological toxicity: Febrile neutropenia; Neutropenic infection; Grade 4 neutropenia; Grade ≥3 thrombocytopenia for >7 days; Grade 3 thrombocytopenia with grade ≥2 bleeding; Grade 4 thrombocytopenia; Grade 4 Anemia
(§3) Non-hematological toxicity Grade ≥4, vomiting or diarrhea; Grade 3 diarrhea or grade 3 vomiting lasting more than 3 days despite optimal medical support; Grade ≥3 nausea for 3 days or more despite optimal medical support; Any other grade ≥3 AE

From the text for patients with CRC: as §1, §2, §3
All enrolled patients had received prior lines of systemic anticancer therapy.

For the compound `C=CC(=O)N1CCN(c2ncnc3c(F)c(-c4c(O)cccc4F)c(Cl)cc23)CC1` [ARS-1620], the in vivo efficacy entry with KRAS p.G12C tumors [1] was “demonstrates in vivo efficacy”.

As usually defined, the AUC is the area under the concentration-time curve, a measure of exposure. As a reminder, the AUC(0-t) is exposure summed from dosing to a finite time, without extrapolation to infinity. In the data set “clinical”, `C=CC(=O)N1CCN(c2nc(=O)n(-c3c(C)ccnc3C(C)C)c3nc(-c4c(O)cccc4F)c(F)cc23)[C@@H](C)C1` [Compound A, 4-((S)-4-acryloyl-2-methylpiperazin-1-yl)-6-fluoro-7-(2-fluoro-6-hydroxyphenyl)-1-(2-isopropyl-4-methylpyridin-3-yl)pyrido[2,3-d]pyrimidin-2(1H)-one] displayed an AUC of 65.3 µg·h/mL and an AUC(0-t) of 140 µg·h/mL. The tolerability entry in the data set on patients with CRC (CRC patients) is on record as “well tolerated with mild treatment-related toxicities”. In addition, in the data set on patients with CRC (CRC, 42 patients), the “anemia, grade 3 treatment-related AE” value turned out to be 1 patient and the “diarrhea, grade 3 treatment-related AE” value was found to be 1 patient. Moreover, in the data set on patients with CRC (CRC, N = 42), the “AEs leading to treatment discountinuation, Treatment-Emergent AEs (TEAEs)” value was 2 (4.8) n (%); the “AEs leading to treatment discountinuation, Treatment-related TEAEs” value was 0 (0.0) n (%); the “Anemia (treatment-related TEAE of any grade)” value is 2 (4.8) n (%); the “Any grade, Treatment-Emergent AEs (TEAEs)” value is recorded as 38 (90.5) n (%). In the data set on patients with CRC (CRC, N = 42), the “Any grade, Treatment-related TEAEs” value was 20 n (%) and 20 (47.6) n (%); the “Blood creatine phosphokinase increase (treatment-related TEAE of any grade)” value is 2 (4.8) n (%); the “Diarrhea (treatment-related TEAE of any grade)” value was 8 (19.0) n (%); the “Dose-limiting toxicities, Treatment-related TEAEs” value was 0 (0.0) n (%). Further, in the data set on patients with CRC (CRC, N = 42), the “Fatal AEs, Treatment-Emergent AEs (TEAEs)” value was 3 (7.1) n (%); the “Fatal AEs, Treatment-related TEAEs” value was 0 (0.0) n (%); the “Fatigue (treatment-related TEAE of any grade)” value is listed as 4 (9.5) n (%); the “Grade ≥2, Treatment-Emergent AEs (TEAEs)” value is recorded as 29 (69.0) n (%). In the data set on patients with CRC (CRC, N = 42), the “Grade ≥2, Treatment-related TEAEs” value was 9 (21.4) n (%); the “Grade ≥3, Treatment-Emergent AEs (TEAEs)” value is recorded as 13 (31.0) n (%); the “Grade ≥3, Treatment-related TEAEs” value is on record as 2 (4.8) n (%); the “Grade ≥4, Treatment-Emergent AEs (TEAEs)” value is listed as 3 (7.1) n (%). In the data set with patients with CRC (CRC, N = 42), the “Grade ≥4, Treatment-related TEAEs” value was 0 (0.0) n (%); the “Nausea (treatment-related TEAE of any grade)” value was 2 (4.8) n (%); the “Serious AEs, Treatment-Emergent AEs (TEAEs)” value is on record as 10 (23.8) n (%); the “Serious AEs, Treatment-related TEAEs” value is reported as 0 (0.0) n (%). In the data set on patients with CRC (CRC, N = 42), the “Vomiting (treatment-related TEAE of any grade)” value is recorded as 2 (4.8) n (%). The “effect in combination with chemotherapy and targeted agents” value with KRAS p.G12C tumors [2] was “significantly improved the anti-tumor efficacy of chemotherapy and targeted agents”. Moreover, the “outcome in combination with immune checkpoint inhibition” value with KRAS p.G12C tumors [3] was “durable cures”. In data set [4] (other solid tumors), the “toxicities associated with Compound A” value is “mild and manageable”. Besides, in data set [4] (other solid tumors, N = 25), the “AEs leading to treatment discontinuation, All Treatment-Emergent AEs (TEAEs)” value was 3 (12.0) n (%); the “Any grade, All Treatment-Emergent AEs (TEAEs)” value was 20 (80.0) n (%); the “Any grade, All Treatment-Related TEAEs” value was 9 (36.0) n (%); the “Dose-limiting toxicities, All Treatment-Related TEAEs” value is listed as 0 (0.0) n (%). Also, in data set [4] (other solid tumors, N = 25), the “Fatal AEs, All Treatment-Emergent AEs (TEAEs)” value is 4 (16.0) n (%); the “Fatal AEs, All Treatment-Related TEAEs” value is given as 0 (0.0) n (%); the “Grade ≥2, All Treatment-Emergent AEs (TEAEs)” value was 17 (68.0) n (%); the “Grade ≥2, All Treatment-Related TEAEs” value was 4 (16.0) n (%). In data set [4] (other solid tumors, N = 25), the “Grade ≥3, All Treatment-Emergent AEs (TEAEs)” value is 15 (60.0) n (%); the “Grade ≥3, All Treatment-Related TEAEs” value is on record as 2 (8.0) n (%); the “Grade ≥4, All Treatment-Emergent AEs (TEAEs)” value is reported as 4 (16.0) n (%); the “Grade ≥4, All Treatment-Related TEAEs” value is reported as 0 (0.0) n (%). Further, in data set [4] (other solid tumors, N = 25), the “Serious AEs, All Treatment-Emergent AEs (TEAEs)” value was 13 (52.0) n (%) and the “Serious AEs, All Treatment-Related TEAEs” value was 1 (4.0) n (%). Also, in data set [4] (out of 25 patients), the “diarrhea, grade 3 treatment-related AE” value was 1 patients; the “diarrhea, treatment-related TEAE” value stood at 2 patients; the “fatigue, treatment-related TEAE” value is reported as 2 patients; the “pneumonia, grade 3 treatment-related AE” value is 1 patients.
